From US20260062422A1 (Halda Therapeutics OpCo, Inc., priority 2022, published 2026) come the findings set out here.

Structures are written as SMILES.

Experiment [1] relates to T-Rex 293 cell line SC3 cells having increased expression of androgen receptor protein due to exposure to doxycycline. The experiment is described as follows: Cellular growth inhibition, T-Rex 293 SC3 cells with doxycycline (androgen receptor induced), CellTiter-Glo. To be noted: T-Rex 293 SC3 cells with 10 ng/mL doxycycline (increased androgen receptor expression). In kind it is cell-based. In outline: (§1)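 With DMSO (0.5%) vehicle as negative control, compounds treated SC3 cells for 72 h in medium containing charcoal-dextran FBS ± doxycycline. This T-Rex 293 clone expresses transfected wild-type AR on induction. Readout: CellTiter-Glo 2.0; GI50 by nonlinear regression.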

The subject of experiment [2] is T-Rex 293 cell line SC3 cells lacking increased expression of androgen receptor protein. The experiment is described as follows: Cellular growth inhibition, T-Rex 293 SC3 cells without doxycycline, CellTiter-Glo. In kind it is cell-based. As to conditions: T-Rex 293 SC3 cells not exposed to doxycycline, CellTiter-Glo 2.0. In outline: as §1
The next experiment relates to VCaP cells. Description: Cellular growth inhibition assay for VCaP cells, CellTiter-Glo. In kind it is cell-based, human. As to conditions: 72 hours treatment, CellTiter-Glo 2.0. The procedure, abridged:
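GI50 values come from four-parameter curve fits of luminescence data normalized to a zero baseline. Compound, in medium with 0.5% DMSO, was added one day after plating and left for 72 h before CellTiter-Glo 2.0 addition.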

A further experiment has as its system T47D cells. Description: Cellular growth inhibition assay for T47D cells, CellTiter-Glo. It counts as cell-based, human. As to conditions: 72 hours treatment, CellTiter-Glo 2.0 cell viability. The procedure, abridged:
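Growth inhibition as GI50, fitted with four parameters to CellTiter-Glo luminescence after 72 h of compound exposure (0.5% DMSO). Cells were T47D, grown in insulin-supplemented (0.2 units/mL) DMEM with 10% FBS and treated one day post-seeding.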

Turning to `Cc1sc2c(c1C)C(c1ccc(O[C@@H]3CCCN(c4ncc(C(=O)N[C@H]5C(C)(C)[C@H](Oc6ccc(C#N)c(Cl)c6)C5(C)C)cn4)C3)cc1)=N[C@@H](Cc1ncco1)c1nnc(C)n1-2` [Compound I-260], the GI50 in experiment [1] (72 h) is below 500 nM; in experiment [2] (72 h), 1500 to 3000 nM; with VCaP cells (Homo sapiens, VCaP, 72 h), below 500 nM; in the experiment on T47D cells (Homo sapiens, T47D, 72 h), below 500 nM.
Consider `CCNC(=O)C[C@@H]1N=C(c2ccc(CCN(C)c3ncc(C(=O)N[C@H]4C(C)(C)[C@H](Oc5ccc(C#N)c(Cl)c5)C4(C)C)cn3)cc2)c2c(sc(C)c2C)-n2c(C)nnc21` [Compound I-103], for which the GI50 in experiment [1] (72 h) was below 500 nM; in experiment [2] (72 h), 500 to 1500 nM; in the experiment on VCaP cells (Homo sapiens, VCaP, 72 h), 500 to 1500 nM; in the experiment with T47D cells (Homo sapiens, T47D, 72 h), 500 to 1500 nM.
In the case of `Cc1sc2c(c1C)C(c1ccc(C#C[C@H]3C[C@@]4(CCCN(c5ncc(C(=O)N[C@H]6C(C)(C)[C@H](Oc7ccc(C#N)c(Cl)c7)C6(C)C)cn5)C4)C3)cc1)=N[C@@H](C)c1nnc(C)n1-2` [Compound I-379], the GI50 was below 500 nM in experiment [1] (72 hours), above 3000 nM in experiment [2] (72 hours), below 500 nM in the experiment with VCaP cells and above 3000 nM in the experiment on T47D cells.
On to `Cc1nc(N2CCC3(CC2)CC2(CC(Oc4ccc(C5=N[C@@H](Cc6ncco6)c6nnc(C)n6-c6sc(C)c(C)c65)cc4)C2)C3)ncc1C(=O)N[C@H]1C(C)(C)[C@H](Oc2ccc(C#N)c(Cl)c2)C1(C)C` [Compound I-673, N-[3-(3-chloro-4-cyano-phenoxy)-2,2,4,4-tetramethyl-cyclobutyl]-4-methyl-2-[2-[4-[(9S)-4,5,13-trimethyl-9-(oxazol-2-ylmethyl)-3-thia-1,8,11,12-tetrazatricyclo[8.3.0.02,6]trideca-2(6),4,7,10,12-pentaen-7-yl]phenoxy]-9-azadispiro [3.1.56.14]dodecan-9-yl]pyrimidine-5-carboxamide], for which the concentration for 50% growth inhibition (GI50) in experiment [1] (72 h) was below 500 nM; in experiment [2] (72 h), above 3000 nM; in the experiment on VCaP cells (Homo sapiens, VCaP, 72 h), below 500 nM; in the experiment with T47D cells (Homo sapiens, T47D, 72 h), below 500 nM.
As to `Cc1sc2c(c1C)C(c1ccc(C#CC3CC4(C3)CN(c3ncc(C(=O)N[C@H]5C(C)(C)[C@H](Oc6ccc(C#N)c(Cl)c6)C5(C)C)cn3)C4)cc1)=NC1(CC1)c1nnc(C)n1-2` [Compound I-462], the GI50 is below 500 nM in experiment [1] (72 h); 500 to 1500 nM in experiment [2] (72 h); below 500 nM in the experiment on VCaP cells (Homo sapiens, VCaP, 72 h); 500 to 1500 nM in the experiment with T47D cells (Homo sapiens, T47D, 72 h).
Turning to `Cc1sc2c(c1C)C(c1ccc(CCOC3CCN(c4ncc(C(=O)N[C@H]5C(C)(C)[C@H](Oc6ccc(C#N)c(Cl)c6)C5(C)C)cn4)CC3)cc1)=NC(Cc1ncco1)c1nnc(C)n1-2` (some centres unmarked) [Compound I-140], the 50% growth inhibitory concentration (GI50) is below 500 nM in experiment [1] (72 h); below 500 nM in experiment [2] (72 h); below 500 nM in the experiment on VCaP cells (Homo sapiens, VCaP, 72 h); below 500 nM with T47D cells (Homo sapiens, T47D, 72 h).
For `Cc1sc2c(c1C)C(c1ccc(CCCOC3CCN(c4ncc(C(=O)N[C@H]5C(C)(C)[C@H](Oc6ccc(C#N)c(Cl)c6)C5(C)C)cn4)CC3)cc1)=N[C@@H](Cc1ccccn1)c1nnc(C)n1-2` [Compound I-212, N-[3-(3-chloro-4-cyano-phenoxy)-2,2,4,4-tetramethyl-cyclobutyl]-2-[4-[3-[4-[(9S)-4,5,13-trimethyl-9-(2-pyridylmethyl)-3-thia-1,8,11,12-tetrazatricyclo[8.3.0.02,6]trideca-2(6),4,7,10,12-pentaen-7-yl]phenyl]propoxy]-1-piperidyl]pyrimidine-5-carboxamide], the concentration for 50% growth inhibition (GI50) in experiment [1] (72 h) was below 500 nM; in experiment [2] (72 h), above 3000 nM; in the experiment on VCaP cells (Homo sapiens, VCaP, 72 h), below 500 nM; in the experiment on T47D cells (Homo sapiens, T47D, 72 h), below 500 nM.
With `Cc1sc2c(c1C)C(c1ccc(C3CN(C4CCN(c5ncc(C(=O)N[C@H]6C(C)(C)[C@H](Oc7ccc(C#N)c(Cl)c7)C6(C)C)cn5)CC4)C3)cc1)=N[C@@H](Cc1ncco1)c1nnc(C)n1-2` [Compound I-247], the GI50 is below 500 nM in experiment [1] (72 h); below 500 nM in experiment [2] (72 h); below 500 nM with VCaP cells (Homo sapiens, VCaP, 72 h); below 500 nM in the experiment on T47D cells (Homo sapiens, T47D, 72 h).
For `CCNC(=O)C[C@@H]1N=C(c2ccc(N3CCC(OC4CCN(c5ncc(C(=O)N[C@H]6C(C)(C)[C@H](Oc7ccc(C#N)c(Cl)c7)C6(C)C)cn5)CC4)C3)cc2)c2c(sc(C)c2C)-n2c(C)nnc21` (some centres unmarked) [Compound I-126], the GI50 in experiment [1] (72 h) was below 500 nM; in experiment [2] (72 h) it was 500 to 1500 nM; in the experiment on VCaP cells (Homo sapiens, VCaP, 72 h), 500 to 1500 nM; in the experiment on T47D cells (Homo sapiens, T47D, 72 h), below 500 nM.
Turning to `Cc1sc2c(c1C)C(c1ccc(CN3CC[C@@]4(CCCN(c5ncc(C(=O)N[C@H]6C(C)(C)[C@H](Oc7ccc(C#N)c(Cl)c7)C6(C)C)cn5)C4)C3)cc1)=N[C@@H](Cc1ncco1)c1nnc(C)n1-2` [Compound I-144], the concentration for 50% growth inhibition (GI50) in experiment [1] (72 h) is below 500 nM; in experiment [2] (72 h), below 500 nM; in the experiment with VCaP cells (Homo sapiens, VCaP, 72 h) it was below 500 nM; with T47D cells (Homo sapiens, T47D, 72 h) it was 500 to 1500 nM.
Turning to `Cc1sc2c(c1C)C(c1ccc(C(C)(C)N3CC4(CCN(c5ncc(C(=O)N[C@H]6C(C)(C)[C@H](Oc7ccc(C#N)c(Cl)c7)C6(C)C)cn5)CC4)C3)cc1)=N[C@@H](Cc1ncco1)c1nnc(C)n1-2` [Compound I-396], the GI50 was above 3000 nM in experiment [1] (72 hours); above 3000 nM in experiment [2] (72 hours); above 3000 nM with VCaP cells; above 3000 nM with T47D cells (Homo sapiens, T47D, 72 h).
As for `Cc1sc2c(c1C)C(c1ccc(-c3cc(C4CCN(c5ncc(C(=O)N[C@H]6C(C)(C)[C@H](Oc7ccc(C#N)c(Cl)c7)C6(C)C)cn5)CC4)on3)cc1)=N[C@@H](Cc1ncco1)c1nnc(C)n1-2` [Compound I-453], the GI50 in experiment [1] (72 h) is below 500 nM; in experiment [2] (72 h), above 3000 nM; with VCaP cells (Homo sapiens, VCaP, 72 h), below 500 nM; with T47D cells (Homo sapiens, T47D, 72 h), below 500 nM.
On to `Cc1sc2c(c1C)C(c1ccc(C[C@H]3C[C@@]4(CN(c5ncc(C(=O)N[C@H]6C(C)(C)[C@H](Oc7ccc(C#N)c(Cl)c7)C6(C)C)cn5)CCO4)C3)cc1)=N[C@@H](Cc1ncco1)c1nnc(C)n1-2` [Compound I-244], for which the 50% growth inhibitory concentration (GI50) was below 500 nM in experiment [1] (72 h); above 3000 nM in experiment [2] (72 h); above 3000 nM in the experiment on VCaP cells (Homo sapiens, VCaP, 72 h); above 3000 nM with T47D cells (Homo sapiens, T47D, 72 h).
On to `Cc1sc2c(c1C)C(c1ccc(C(=O)N3CCC(Cc4ncc(C(=O)N[C@H]5C(C)(C)[C@H](Oc6ccc(C#N)c(Cl)c6)C5(C)C)cn4)CC3)cc1)=N[C@@H](Cc1ncco1)c1nnc(C)n1-2` [Compound I-288], for which the GI50 in experiment [1] (72 h) is above 3000 nM; in experiment [2] (72 h), above 3000 nM; in the experiment on VCaP cells (Homo sapiens, VCaP, 72 h) it was above 3000 nM; in the experiment on T47D cells (Homo sapiens, T47D, 72 h), above 3000 nM.
For the compound `Cc1sc2c(c1C)C(c1ccc(N3CCC[C@H](C(=O)N4CCCC4c4ncc(C(=O)N[C@H]5C(C)(C)[C@H](Oc6ccc(C#N)c(Cl)c6)C5(C)C)cn4)C3)cc1)=N[C@@H](Cc1ncco1)c1nnc(C)n1-2` (some centres unmarked) [Compound I-314], the GI50 in experiment [1] (72 h) is below 500 nM; in experiment [2] (72 h) it was above 3000 nM; in the experiment on VCaP cells (Homo sapiens, VCaP, 72 h) it was below 500 nM; with T47D cells (Homo sapiens, T47D, 72 h), below 500 nM.
On to `Cc1sc2c(c1C)C(c1ccc(C3CC(C4CCN(c5ncc(C(=O)N[C@H]6C(C)(C)[C@H](Oc7ccc(C#N)c(Cl)c7)C6(C)C)cn5)CC4)C3)cc1)=NC(C)c1nnc(C)n1-2` (some centres unmarked) [Compound I-467], for which the concentration for 50% growth inhibition (GI50) in experiment [1] (72 hours) is below 500 nM; in experiment [2] (72 hours), above 3000 nM; in the experiment with VCaP cells it was below 500 nM; in the experiment with T47D cells, below 500 nM.
In the case of `Cc1sc2c(c1C)C(c1ccc([C@@H]3CCCCN3C(=O)[C@H]3CCCN(c4ncc(C(=O)N[C@H]5C(C)(C)[C@@H](Oc6ccc(C#N)c(Cl)c6)C5(C)C)cn4)C3)cc1)=N[C@@H](Cc1ncco1)c1nnc(C)n1-2` [Compound I-360], the GI50 was below 500 nM in experiment [1] (72 h); above 3000 nM in experiment [2] (72 h); below 500 nM in the experiment on VCaP cells (Homo sapiens, VCaP, 72 h); above 3000 nM in the experiment with T47D cells (Homo sapiens, T47D, 72 h).
With `Cc1sc2c(c1C)C(c1ccc(O[C@@H]3CCC4(CCN(c5ncc(C(=O)N[C@H]6C(C)(C)[C@H](Oc7ccc(C#N)c(Cl)c7)C6(C)C)cn5)CC4)C3)cc1)=N[C@@H](Cc1ncco1)c1nnc(C)n1-2` [Compound I-174], the GI50 is below 500 nM in experiment [1] (72 h); below 500 nM in experiment [2] (72 h); 500 to 1500 nM in the experiment on VCaP cells (Homo sapiens, VCaP, 72 h); below 500 nM in the experiment on T47D cells (Homo sapiens, T47D, 72 h).
As to `Cc1sc2c(c1C)C(c1ccc(OC3CC4(CCN(c5ncc(C(=O)N[C@H]6C(C)(C)[C@H](Oc7ccc(C#N)c(Cl)c7)C6(C)C)cn5)CC4)C3)cc1)=N[C@H](Cc1ncco1)c1nnc(C)n1-2` [Compound I-50, N-[3-(3-chloro-4-cyano-phenoxy)-2,2,4,4-tetramethyl-cyclobutyl]-2-[2-[4-[(9R)-4,5,13-trimethyl-9-(oxazol-2-ylmethyl)-3-thia-1,8,11,12-tetrazatricyclo[8.3.0.02,6]trideca-2(6),4,7,10,12-pentaen-7-yl]phenoxy]-7-azaspiro[3.5]nonan-7-yl]pyrimidine-5-carboxamide], the 50% growth inhibitory concentration (GI50) in experiment [1] (72 h) is below 500 nM; in experiment [2] (72 h), above 3000 nM; in the experiment with VCaP cells (Homo sapiens, VCaP, 72 h), above 3000 nM; in the experiment on T47D cells (Homo sapiens, T47D, 72 h) it was above 3000 nM.
In the case of `Cc1sc2c(c1C)C(c1ccc(C3CC(C4CCN(c5cnc(C(=O)N[C@H]6C(C)(C)[C@H](Oc7ccc(C#N)c(Cl)c7)C6(C)C)cn5)CC4)C3)cc1)=NC(C)c1nnc(C)n1-2` (some centres unmarked) [Compound I-469], the concentration for 50% growth inhibition (GI50) in experiment [1] (72 hours) was below 500 nM; in experiment [2] (72 hours) it was 500 to 1500 nM; in the experiment with VCaP cells it was below 500 nM; with T47D cells (Homo sapiens, T47D, 72 h), below 500 nM.
